{
  "source": "patent US9078810B2",
  "about": "“Transdermal delivery system” (Acrux DDS Pty Ltd., priority 2007, dated 2015)",
  "key": {"[1]": {"assay": "Diclofenac Transdermal Spray finite-dose in vitro diffusion study (Example 6)", "type": "in vitro ADME, human", "details": "24 hr", "description": "Finite-dose in vitro diffusion studies were undertaken dermatomed skin (Padgett Model B or S electric dermatome set at 500 μm) prepared from excised […], abdominal skin.\nThese experiments were conducted over 24 hours using flow-through systems with a 1-cm^2 administration area.\nFollowing a 2-h equilibration of the skin with the receptor solution (RS) of phosphate-buffered saline (PBS) pH 7.4, the stratum corneum surface was dosed with a volume of 3.6 μL/cm^2 (unless otherwise indicated) of a test formulation using a positive displacement pipette. The formulation was spread evenly over the skin area using the pipette tip.\nThe Diclofenac Transdermal Spray formulations were as follows: — • 0.1-2.0% Diclofenac (DIC) diethylamine in Isopropyl alcohol (IPA) [no enhancer] • 0.1-2.0% DIC diethylamine, 5% Octyl Salicylate (OS) in IPA [OS alone] • 0.1-2.0% DIC diethylamine, 2.5% Polyethylene glycol 200 (PEG 200) in IPA [PEG 200 alone] • 0.1-2.0% DIC diethylamine, 5% OS, 2.5% PEG 200 in IPA [OS+PEG 200]\nA commercially available Diclofenac gel (approximately 5 mg/cm2) was used as a control. The commercially available gel was applied using a solid cap to simulate the rubbing action required when using the product. Approximately 7 mg gel was applied to the circular surface of a black polypropylene cylindrical cap (Alltech catalogue #98105, diameter 11 mm). […]"}, "[2]": {"type": "in vitro ADME, human", "source_text": "The receptor solutions (Phosphate Buffered Saline pH7.4) maintained sink conditions below the skin.\nThe formulations consisted of:— • Composition (Camp) 1 (Control): 1.35% Nestorone (NES), 0.35% Ethinylestradiol (EE), 5% Octyl Salicylate (OS) in Isopropyl Alcohol (IPA) • Comp 2: 1.35% NES, 0.35% EE, 5% OS, 5% Polyethylene glycol 400 (PEG400) in IPA • Comp 3: 1.35% NES, 0.35% EE, 0.5% Polyethylene glycol (PEG200) in IPA • Comp 4: 1.35% NES, 0.35% EE, 5% OS, 0.5% PEG200 in IPA • Comp 5: 1.35% NES, 0.35% EE, 1% PEG200 in IPA • Comp 6: 1.35% NES, 0.35% EE, 5% OS, 1% PEG200 in IPA • Comp 7: 1.35% NES, 0.35% EE, 2.5% PEG200 in IPA • Comp 8: 1.35% NES, 0.35% EE, 5% OS, 2.5% PEG200 in IPA • Comp 9: 1.35% NES, 0.35% EE, 5% PEG200 in IPA • Comp 10:1.35% NES, 0.35% EE, 5% OS, 5% PEG200 in IPA • Comp 11: 1.35% NES, 0.35% EE, 10% PEG200 in IPA • Camp 12: 1.35% NES, 0.35% EE, 5% OS, 10% PEG200 in IPA"}, "[3]": {"assay": "Finite-dose in vitro diffusion study, Franz-type cells, 24 hours (Example 1)", "type": "in vitro ADME, human", "details": "effect of PEG200 in combination with OS vs 5% OS comparison composition, 2.8% NETA, 0.55% E2, 3.6 μL/cm2", "description": "These experiments were performed over 24 hours using Franz-type cells. Pre-cut skin membranes were mounted as a barrier between the halves of greased (high vacuum grease, BDH) horizontal Franz-type permeation cells in the middle of the receptor chamber of the cell with the stratum corneum facing the donor chamber. The area available for permeation was approximately 0.925 cm2. The receptor chambers of the permeation cells were filled with the receptor phase (Phosphate Buffered Saline pH 7.4) and capped. The permeation cells were immersed in a constant temperature water bath such that the receptor chambers were maintained at 35° C. Receptor chamber contents were continuously agitated by small PTFE-coated magnetic stirrer bars driven by submersible magnetic stirrers. The skin was allowed to equilibrate to temperature with receptor solution for 1 h in the water bath prior to dosing.\nThe formulations were applied to the skin at a dose of 3.6 μL/cm2. The applied formulation was spread over the skin area using an Eppendorf positive displacement pipette tip without breaking the skin membrane. […]"}, "[4]": {"assay": "Finite-dose in vitro diffusion study, flow through diffusion cells, 15 μL/cm2 (Example 3)", "details": "effect of PEG200 (0.5-2.5%) in combination with 5% OS, 2% TES, 2% PVP, 30% IPA in ethanol, 24 hr", "method": "These experiments were performed over 24 hours using stainless steel, flow through diffusion cells based on those described previously (Cooper, E. R. J. Pharm. Sci. 1984, 73, 1153-1156) except that the cell was modified to increase the diffusion area to 1.0 cm2. The formulations were applied using a finite dose technique (Franz, T. J. Curr. Probl. Dermatol., 1978, 7, 58-68) to mimic clinical dosing conditions at an applied dose volume of 15 μL/cm2. […] The receptor solutions (0.002% w/v NaN3) maintained sink conditions below the skin.\nThe formulations consisted of:— • Comp 1: 2% Testosterone (TES), 5% Octyl Salicylate (OS), 2% polyvinyl pyrrolidine (PVP), 30% isopropyl alcohol (IPA) in ethanol (95%) • Comp 2: 2% TES, 5% OS, 2% PVP, 30% IPA, 0.5% polyethylene glycol 200 (PEG200) in ethanol (95%) • Comp 3: 2% TES, 5% OS, 2% PVP, 30% IPA, 1.0% PEG200 in ethanol (95%) • Comp 4: 2% TES, 5% OS, 2% PVP, 30% IPA, 2.5% PEG200 in ethanol (95%)"}, "[5]": {"assay": "Finite-dose in vitro diffusion study, flow through diffusion cells, 3.6 μL/cm2 (Example 4)", "details": "effect of PEG200 (1.0-2.5%) in combination with 5% OS, 5% TES in ethanol (95%), 24 hr", "method": "These experiments were performed over 24 hours using stainless steel, flow through diffusion cells based on those described previously (Cooper, E. R. J. Pharm. Sci. 1984, 73, 1153-1156) except that the cell was modified to increase the diffusion area to 1.0 cm2. The formulations were applied using a finite dose technique (Franz, T. J. Curr. Probl. Dermatol., 1978, 7, 58-68) to mimic clinical dosing conditions at an applied dose volume of 3.6 μL/cm2. […] The receptor solutions (0.002% w/v NaN3) maintained sink conditions below the skin."}, "[6]": {"assay": "Estradiol Spray finite-dose in vitro permeation study (Example 7)", "type": "in vitro ADME, human", "details": "24 h", "description": "Finite-dose in vitro permeation studies were undertaken using dermatomed skin (Padgett Model B or S electric dermatome set at 500 μm) prepared from excised […], abdominal skin.\nThese experiments were conducted over 24 hours (h) using flow-through systems with a 1-cm2 administration area. […] The receptor solution was maintained at a nominal flow rate of 0.5 mL/h by a peristaltic pump (Watson Marlow 520S Peristaltic Pump with 313A adaptor and 308MC 8 roller pump-head; Stauff Corporation, Australia). The cells were placed on a heater bar to keep the temperature of the skin at 32±1° C.\nFollowing a 2-h equilibration of the skin with the receptor solution (RS; 0.002% sodium azide), the stratum corneum surface was dosed with 3.6 μL/cm^2 of an Estradiol Transdermal Spray formulation using a positive displacement pipette. The formulation was spread evenly over the skin area using the pipette tip.\nThe Estradiol transdermal spray formulations contained:— • Estradiol (E2)+Octyl Salicylate (OS) in Isopropyl Alcohol IPA • E2+OS+Polyethylene glycol (PEG200) in Isopropyl Alcohol IPA • E2+OS+Polyethylene glycol 400 (PEG400) in IPA"}},
  "note": "Like-named read-outs stand apart in the source and are kept apart here.",
  "data": [
    {"compound": "O=C(O)Cc1ccccc1Nc1c(Cl)cccc1Cl", "note": "[DIC, Diclofenac]", "values": [
      {"measurement": "permeation through human epidermis in vitro", "setting": "[1]; effect of PEG200 in combination with OS, DIC diethylamine, 5% OS, 2.5% PEG 200 in IPA", "result": "significantly enhance"},
      {"measurement": "permeation through human epidermis in vitro", "setting": "[1]; effect of PEG 400, either alone or in combination with OS", "result": "decrease"}
    ]},
    {"compound": "C#C[C@]1(O)CC[C@H]2[C@@H]3CCc4cc(O)ccc4[C@H]3CC[C@@]21C", "note": "[Ethinylestradiol]", "values": [
      {"measurement": "permeation through human epidermis in vitro", "setting": "[2]", "result": "inhibit"}
    ]},
    {"compound": "C=C1C[C@H]2[C@@H]3CCC4=CC(=O)CC[C@@H]4[C@H]3CC[C@]2(C)[C@@]1(OC(C)=O)C(C)=O", "note": "[Nestorone]", "values": [
      {"measurement": "permeation through human epidermis in vitro", "setting": "[2]", "result": "did not have a significant effect"}
    ]},
    {"compound": "C#C[C@]1(OC(C)=O)CC[C@H]2[C@@H]3CCC4=CC(=O)CC[C@@H]4[C@H]3CC[C@@]21C", "note": "[Norethisterone Acetate]", "values": [
      {"measurement": "permeation through human epidermis in vitro", "setting": "[3]", "result": "significantly enhance"}
    ]},
    {"compound": "C[C@]12CC[C@H]3[C@@H](CCC4=CC(=O)CC[C@@]43C)[C@@H]1CC[C@@H]2O", "note": "[Testosterone]", "values": [
      {"measurement": "permeation through human epidermis in vitro", "setting": "[4]", "result": "significantly enhance"},
      {"measurement": "permeation through human epidermis in vitro", "setting": "[5]", "result": "significantly enhance"}
    ]},
    {"compound": "C[C@]12CC[C@@H]3c4ccc(O)cc4CC[C@H]3[C@@H]1CC[C@@H]2O", "note": "[estradiol, Estradiol]", "values": [
      {"measurement": "permeation through human epidermis in vitro", "setting": "[3]", "result": "significantly enhance"},
      {"measurement": "permeation through human skin in vitro", "setting": "[6]; effect of PEG200 combined with OS in IPA, 3.6 μL/cm^2", "result": "synergistically enhanced"},
      {"measurement": "permeation through human skin in vitro", "setting": "[6]; effect of PEG400 alone and PEG400+OS compared with the control formulation", "result": "no significant effect"}
    ]}
  ]
}
